Key:
human orexin 1 receptors = human orexin 1 receptors (Homo sapiens (Human), UniProt O43613); test: Calcium Accumulation in Cells (FLIPR), antagonism of orexin A; format: cell-based; settings: for inhibition at 10 µM: measured at a concentration of 10 μM of compound, read-out: FLIPR hOx1R % inhibition value; for Ki: antagonism of orexin A, Cheng-Prusoff corrected, read-out: FLIPR hOx1R Ki
Experimental: (§1) Calcium Accumulation in Cells (FLIPR):
Cells expressing human orexin 1 or human orexin 2 receptors, were seeded at 8,000 cells/well in 384 well black-walled clear bottom, poly-D-lysine coated plates. After 24 h, the medium was removed and cells were washed once with phosphate buffered saline and serum-deprived overnight in assay buffer (130 mM NaCl, 5.4 mM KCl, 1.8 mM CaCl2, 0.8 mM MgSO4, 0.9 mM NaH2PO4, 25 mM glucose, 20 mM HEPES, pH 7.4) containing bovine serum albumin (1% w/v).
On the day of the experiment, the cells seeded in black plates were treated with assay buffer containing the Ca^2+ sensitive fluorescent dye Fluo4-AM (2 μM), and probenecid (0.1 mM). After 1 h plates were washed twice with, and resuspended in, assay buffer containing probenecid (0.1 mM) using a multi plate washer. The plates were placed into a FLIPR II (Fluorometric Imaging Plate Reader, Molecular Devices, Sunnyvale, Calif., USA) and baseline fluorescence (fluorescence light units, FLU) was measured (5 measurements, 2 S each; laser excitation 488 nm at 0.6-1 W, CCD camera exposure 0.4 s) before addition of buffer alone (basal) or containing test compounds (either compound of formula (I) or (I′) alone, agonist alone or agonist in the presence of various concentrations of compounds of formula (I) or (I′)). Fluorescence measurements were then continued every 1 S for 120 S followed by every 4 S for 240 S.
(§2) The measurements were typically made in two sequences:
(§3) In the first round, compounds of formula (I) or (I′) were tested alone, to detect possible agonist activity. Compounds of formula I or I′ were tested usually in a concentration range from 10^−9 M to 10^−5 M.
(§4) In the second round, performed one hour later (to allow for equilibration), Orexin A was tested either in the absence (calibration curves, Orexin A agonist controls) or in the presence of compounds of formula (I) or (I′) to determine antagonism.

human orexin 2 receptors = human orexin 2 receptors (Homo sapiens (Human), UniProt O43614); test: as above; format: cell-based; settings: for inhibition at 10 µM: measured at a concentration of 10 μM of compound, read-out: FLIPR hOx2R % inhibition value; for Ki: antagonism of orexin A, Cheng-Prusoff corrected, read-out: FLIPR hOx2R Ki
Sequence of human orexin 2 receptors (O43614 whole entry): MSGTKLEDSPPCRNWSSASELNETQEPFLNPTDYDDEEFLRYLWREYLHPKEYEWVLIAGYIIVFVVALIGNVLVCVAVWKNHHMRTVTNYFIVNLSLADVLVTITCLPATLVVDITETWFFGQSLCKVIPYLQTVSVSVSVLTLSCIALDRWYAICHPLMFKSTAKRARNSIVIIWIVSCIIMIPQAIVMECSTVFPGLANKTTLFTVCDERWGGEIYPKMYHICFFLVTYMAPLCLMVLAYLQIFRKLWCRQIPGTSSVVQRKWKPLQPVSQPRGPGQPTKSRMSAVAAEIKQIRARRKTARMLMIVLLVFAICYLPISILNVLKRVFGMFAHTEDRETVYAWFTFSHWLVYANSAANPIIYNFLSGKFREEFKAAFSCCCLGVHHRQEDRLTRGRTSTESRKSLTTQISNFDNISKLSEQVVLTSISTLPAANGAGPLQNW
Experimental: as §1
Cells expressing human orexin 1 or human orexin 2 receptors, were seeded at 8,000 cells/well in 384 well black-walled clear bottom, poly-D-lysine coated plates.
On the day of the experiment, the cells seeded in black plates were treated with assay buffer containing the Ca^2+ sensitive fluorescent dye Fluo4-AM (2 μM), and probenecid (0.1 mM). After 1 h plates were washed twice with, and resuspended in, assay buffer containing probenecid (0.1 mM) using a multi plate washer. […] Fluorescence measurements were then continued every 1 S for 120 S followed by every 4 S for 240 S.
as §2, §3, §4

Sequence of human orexin 1 receptors (O43613 whole entry): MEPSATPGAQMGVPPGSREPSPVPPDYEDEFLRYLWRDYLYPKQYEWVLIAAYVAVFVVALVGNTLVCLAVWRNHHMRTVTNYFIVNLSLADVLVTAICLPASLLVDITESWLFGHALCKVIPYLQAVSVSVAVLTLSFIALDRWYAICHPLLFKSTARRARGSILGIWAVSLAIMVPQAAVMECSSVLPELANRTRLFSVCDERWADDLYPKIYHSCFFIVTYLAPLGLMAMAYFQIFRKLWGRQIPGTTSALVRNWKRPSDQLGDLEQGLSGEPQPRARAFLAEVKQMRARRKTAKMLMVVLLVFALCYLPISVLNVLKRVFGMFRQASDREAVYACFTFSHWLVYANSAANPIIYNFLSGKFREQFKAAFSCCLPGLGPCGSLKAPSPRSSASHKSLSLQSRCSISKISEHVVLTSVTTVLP

| Compound | inhibition at 10 µM (human orexin 1 receptors) [%] | inhibition at 10 µM (human orexin 2 receptors) [%] | Ki (human orexin 1 receptors) [nM] | Ki (human orexin 2 receptors) [nM] |
| --- | --- | --- | --- | --- |
| CC(Oc1cc(C(F)(F)F)c2c(-c3ccccc3)nn(C)c2n1)C(=O)N[C@@H](C)c1ccccc1 (single isomer, unassigned) [Example 1.74] | < 10 | < 10 |  |  |
| COc1ccc2c(c1)CC[C@@H]2NC(=O)C(C)Oc1cc(C)c2c(C3CC3)nn(C)c2n1 (single isomer, unassigned) [Example 6.72, (S or R)-2-(3-cyclopropyl-1,4-dimethyl-1H-pyrazolo[3,4-b]pyridin-6-yloxy)-N-((S)-5-methoxy-2,3-dihydro-1H-inden-1-yl)propanamide] | 46 | 48 |  |  |
| COc1ccc([C@H](C)NC(=O)C(C)Oc2cc(C)c3c(C4CC4)nn(C)c3n2)cc1 (single isomer, unassigned) [Example 6.73, (S or R)-2-(3-cyclopropyl-1,4-dimethyl-1H-pyrazolo[3,4-b]pyridin-6-yloxy)-N-((S)-1-(4-methoxyphenyl)ethyl)propanamide] | 43 | 29 |  |  |
| C[C@H](NC(=O)COc1cc(C(F)(F)F)c2c(-c3ccccc3)n[nH]c2n1)c1ccccc1 [Example 1.2, (S)-2-(3-phenyl-4-(trifluoromethyl)-1H-pyrazolo[3,4-b]pyridin-6-yloxy)-N-(1-phenylethyl)acetamide] |  |  | 200 | 43 |
| CCOc1ccccc1CNC(=O)COc1cc(C(F)(F)F)c2c(-c3ccccc3)nn(C)c2n1 [Example 1.7, N-(2-ethoxybenzyl)-2-(1-methyl-3-phenyl-4-(trifluoromethyl)-1H-pyrazolo[3,4-b]pyridin-6-yloxy)acetamide] |  |  | 1020 | 337 |
| Cn1nc(-c2ccccc2)c2c(C(F)(F)F)cc(OCC(=O)NCc3cccc(F)c3)nc21 [Example 1.8, N-(3-fluorobenzyl)-2-(1-methyl-3-phenyl-4-(trifluoromethyl)-1H-pyrazolo[3,4-b]pyridin-6-yloxy)acetamide] | 39 |  |  | 1620 |
| Cn1nc(-c2ccccc2)c2c(C(F)(F)F)cc(OCC(=O)NC3CCCCC3)nc21 [Example 1.9, N-cyclohexyl-2-(1-methyl-3-phenyl-4-(trifluoromethyl)-1H-pyrazolo[3,4-b]pyridin-6-yloxy)acetamide] | 32 |  |  | 2500 |
| Cn1nc(-c2ccccc2)c2c(C(F)(F)F)cc(OCC(=O)NC3CCCC3)nc21 [Example 1.10, N-cyclopentyl-2-(1-methyl-3-phenyl-4-(trirfluoromethyl)-1H-pyrazolo[3,4-b]pyridin-6-yloxy)acetamide] |  |  | 650 | 324 |
| Cn1nc(-c2ccccc2)c2c(C(F)(F)F)cc(OCC(=O)NCc3ccc(Cl)cc3)nc21 [Example 1.11, N-(4-chlorobenzyl)-2-(1-methyl-3-phenyl-4-(trifluoromethyl)-1H-pyrazolo[3,4-b]pyridin-6-yloxy)acetamide] |  |  | 2010 | 251 |
| Cn1nc(-c2ccccc2)c2c(C(F)(F)F)cc(OCC(=O)NCc3ccccc3)nc21 [Example 1.12, N-benzyl-2-(1-methyl-3-phenyl-4-(trifluoromethyl)-1H-pyrazolo[3,4-b]pyridin-6-yloxy)acetamide] |  |  | 2500 | 1380 |
| Cc1cc(OCC(=O)NCc2ccccc2Cl)nc2c1c(-c1ccccc1)nn2C [Example 1.14, N-(2-chlorobenzyl)-2-(1,4-dimethyl-3-phenyl-1H-pyrazolo[3,4-b]pyridin-6-yloxy)acetamide] |  | 33 | 422 |  |
| Cc1cc(OCC(=O)NCc2ccc3c(c2)OCO3)nc2c1c(-c1ccccc1)nn2C [Example 1.15, N-(benzo[d][1,3]dioxol-5-ylmethyl)-2-(1,4-dimethyl-3-phenyl-1H-pyrazolo[3,4-b]pyridin-6-yloxy)acetamide] | 44 | 39 |  |  |
| C[C@H](NC(=O)COc1cc(C(F)(F)F)c2c(-c3ccccn3)nn(C)c2n1)c1ccccc1 [Example 1.21, (S)-2-(1-methyl-3-(pyridin-2-yl)-4-(trifiuoromethyl)-1H-pyrazolo[3,4-b]pyridin-6-yloxy)-N-(1-phenylethyl)acetamide] | 38 | 29 |  |  |
| C[C@H](NC(=O)COc1cc(C(F)(F)F)c2c(-c3ccncc3)nn(C)c2n1)c1ccccc1 [Example 1.25, (S)-2-(1-methyl-3-(pyridin-4-yl)-4-(trifluoromethyl)-1H-pyrazolo[3,4-b]pyridin-6-yloxy)-N-(1-phenylethyl)acetamide] | 54 | 52 |  |  |
| Cc1ccccc1-c1nn(C)c2nc(OCC(=O)N[C@@H](C)c3ccccc3)cc(C(F)(F)F)c12 [Example 1.26, (S)-2-(1-methyl-3-o-tolyl-4-(trifluoromethyl)-1H-pyrazolo[3,4-b]pyridin-6-yloxy)-N-(1-phenylethyl)acetamide] |  |  | 218 | 183 |
| C[C@@H](NC(=O)COc1cc(C(F)(F)F)c2c(-c3ccccc3)nn(C)c2n1)c1ccccc1 [Example 1.27, (R)-2-(1-methyl-3-phenyl-4-(trifluoromethyl)-1H-pyrazolo[3,4-b]pyridin-6-yloxy)-N-(1-phenylethyl)acetamide] | 33 | 35 |  |  |
| Cc1ccc(C(C)NC(=O)COc2cc(C(F)(F)F)c3c(-c4ccccc4)nn(C)c3n2)o1 (centres unmarked) [Example 1.28, 2-(1-methyl-3-phenyl-4-(trifluoromethyl)-1H-pyrazolo[3,4-b]pyridin-6-yloxy)-N-(1-(5-methylfuran-2-yl)ethyl)acetamide] |  |  | 941 | 411 |
| CC(NC(=O)COc1cc(C(F)(F)F)c2c(-c3ccccc3)nn(C)c2n1)c1ccccn1 (centres unmarked) [Example 1.29, 2-(1-methyl-3-phenyl-4-(trifluoromethyl)-1H-pyrazolo[3,4-b]pyridin-6-yloxy)-N-(1-(pyridin-2-yl)ethyl)acetamide] |  | 44 | 2670 |  |
| CC(NC(=O)COc1cc(C(F)(F)F)c2c(-c3ccccc3)nn(C)c2n1)c1cccnc1 (centres unmarked) [Example 1.30, 2-(1-methyl-3-phenyl-4-(trifluoromethyl)-1H-pyrazolo[3,4-b]pyridin-6-yloxy)-N-(1-(pyridin-3-yl)ethyl)acetamide] |  |  | 970 | 582 |
| CC(NC(=O)COc1cc(C(F)(F)F)c2c(-c3ccccc3)nn(C)c2n1)c1ccncc1 (centres unmarked) [Example 1.31, 2-(1-methyl-3-phenyl-4-(trifluoromethyl)-1H-pyrazolo[3,4-b]pyridin-6-yloxy)-N-(1-(pyridin-4-yl)ethyl)acetamide] |  | 40 | 2110 |  |
| COc1cccc(CNC(=O)COc2cc(C(F)(F)F)c3c(-c4ccccc4)nn(C)c3n2)c1 [Example 1.33, N-(3-methoxybenzyl)-2-(1-methyl-3-phenyl-4-(trifluoromethyl)-1H-pyrazolo[3,4-b]pyridin-6-yloxy)acetamide] |  |  | 1650 | 427 |
| C[C@H](NC(=O)COc1cc(C(F)(F)F)c2c(-c3cccnc3)nn(C)c2n1)c1ccccc1 [Example 1.34, (S)-2-(1-methyl-3-(pyridin-3-yl)-4-(trifluoromethyl)-1H-pyrazolo[3,4-b]pyridin-6-yloxy)-N-(1-phenylethyl)acetamide] |  |  | 869 | 323 |
| Cc1n[nH]c(C)c1[C@@H](C)NC(=O)COc1cc(C(F)(F)F)c2c(-c3ccccc3)nn(C)c2n1 [Example 1.62, (R)-N-(1-(3,5-dimethyl-1H-pyrazol-4-yl)ethyl)-2-(1-methyl-3-phenyl-4-(trifluoromethyl)-1H-pyrazolo[3,4-b]pyridin-6-yloxy)acetamide] |  | 36 |  |  |
| COc1ccc([C@H](C)NC(=O)COc2cc(C)c3c(-c4cc(OC)cc(OC)c4)nn(C)c3n2)cc1 [Example 6.1, (S)-2-((3-(3,5-dimethoxyphenyl)-1,4-dimethyl-1H-pyrazolo[3,4-b]pyridin-6-yl)oxy)-N-(1-(4-methoxyphenyl)ethyl)acetamide] |  |  |  | 185 |
| COc1ccc2c(c1)CC[C@H]2NC(=O)COc1cc(C)c2c(C3CC3)nn(C)c2n1 [Example 6.4, (R)-2-(3-cyclopropyl-1,4-dimethyl-1H-pyrazolo[3,4-b]pyridin-6-yloxy)-N-(5-methoxy-2,3-dihydro-1H-inden-1-yl)acetamide] |  |  | 1760 |  |

Reference: US8742106B2 (Novartis AG, priority 2009, dated 2014)
